The conditions of this series: 3 hours.

Residues, ends and D or L forms follow the SMILES beside them. *: point of attachment. Palmitoyl = CCCCCCCCCCCCCCCC(=O)*

As for `CCCCCCCCCCCCCCCC(=O)SC[C@H](NC(C)=O)C(=O)N[C@H](C(=O)N[C@@H](C)C(=O)N[C@H](C(=O)N[C@@H](CCC(N)=O)C(=O)N[C@@H](CC(C)C)C(=O)N1CCC[C@H]1C(=O)N[C@@H](C)C(=O)N[C@@H](CO)C(=O)N[C@@H](Cc1ccccc1)C(N)=O)[C@@H](C)O)C(C)C` [Ac-C(palm)VATQLPASF-NH2] (Ac-C(Palmitoyl)VATQLPASF-NH2), the “stability of thioesters during acidolytic removal of tert-butyloxy functions and/or cleavage of the resin-peptide bond” value is “stable under all these acidic conditions”.

For the compound `CCCCCCCCCCCCCCCC(=O)SC[C@H](NC(C)=O)C(=O)N[C@@H](CO)C(=O)N[C@@H](CCC(=O)O)C(=O)N[C@H](C(=O)N[C@@H](Cc1ccccc1)C(=O)N[C@@H](CCCNC(=N)N)C(=O)N1CCC[C@H]1C(=O)NCC(=O)NCC(=O)NCC(=O)N[C@@H](CC(=O)O)C(=O)N[C@@H](CCSC)C(=O)N[C@@H](CCCNC(=N)N)C(N)=O)[C@@H](C)CC` [Ac-C(palm)SEIFRPGGGDMR-NH2] (Ac-C(Palmitoyl)SEIFRPGGGDMR-NH2), the “stability of thioesters during acidolytic removal of tert-butyloxy functions and/or cleavage of the resin-peptide bond” value was “stable under all these acidic conditions”.

(Values after patent publication EP0912195B1, “VACCINE COMPRISING ANTIGENS BOUND TO CARRIERS THROUGH LABILE BONDS” (PEPSCAN SYSTEMS B.V., priority 1996, dated 1997).)
